{"source": "patent US20190083498A1", "about": "“THERAPIES FOR HEMATOLOGIC MALIGNANCIES” (GILEAD CALISTOGA LLC, priority 2008, published 2019)", "key": {"INA-6 and LB cells": {"tested_on": "INA-6 and LB cells", "experiment": "Growth of MM cells treated with 3-MA", "type": "cell-based, human", "conditions": "up to 100 μM; 24 h", "experimental": "P110 δ positive LB cells (♦) were treated with 3-MA (0-100 μM) for 24 h. Data represent means (±SD) of triplicate cultures."}, "class II PI3K CIIbeta": {"molecular_target": "class II PI3K CIIbeta (Homo sapiens, UniProt O00750)", "sequence (O00750 whole entry)": "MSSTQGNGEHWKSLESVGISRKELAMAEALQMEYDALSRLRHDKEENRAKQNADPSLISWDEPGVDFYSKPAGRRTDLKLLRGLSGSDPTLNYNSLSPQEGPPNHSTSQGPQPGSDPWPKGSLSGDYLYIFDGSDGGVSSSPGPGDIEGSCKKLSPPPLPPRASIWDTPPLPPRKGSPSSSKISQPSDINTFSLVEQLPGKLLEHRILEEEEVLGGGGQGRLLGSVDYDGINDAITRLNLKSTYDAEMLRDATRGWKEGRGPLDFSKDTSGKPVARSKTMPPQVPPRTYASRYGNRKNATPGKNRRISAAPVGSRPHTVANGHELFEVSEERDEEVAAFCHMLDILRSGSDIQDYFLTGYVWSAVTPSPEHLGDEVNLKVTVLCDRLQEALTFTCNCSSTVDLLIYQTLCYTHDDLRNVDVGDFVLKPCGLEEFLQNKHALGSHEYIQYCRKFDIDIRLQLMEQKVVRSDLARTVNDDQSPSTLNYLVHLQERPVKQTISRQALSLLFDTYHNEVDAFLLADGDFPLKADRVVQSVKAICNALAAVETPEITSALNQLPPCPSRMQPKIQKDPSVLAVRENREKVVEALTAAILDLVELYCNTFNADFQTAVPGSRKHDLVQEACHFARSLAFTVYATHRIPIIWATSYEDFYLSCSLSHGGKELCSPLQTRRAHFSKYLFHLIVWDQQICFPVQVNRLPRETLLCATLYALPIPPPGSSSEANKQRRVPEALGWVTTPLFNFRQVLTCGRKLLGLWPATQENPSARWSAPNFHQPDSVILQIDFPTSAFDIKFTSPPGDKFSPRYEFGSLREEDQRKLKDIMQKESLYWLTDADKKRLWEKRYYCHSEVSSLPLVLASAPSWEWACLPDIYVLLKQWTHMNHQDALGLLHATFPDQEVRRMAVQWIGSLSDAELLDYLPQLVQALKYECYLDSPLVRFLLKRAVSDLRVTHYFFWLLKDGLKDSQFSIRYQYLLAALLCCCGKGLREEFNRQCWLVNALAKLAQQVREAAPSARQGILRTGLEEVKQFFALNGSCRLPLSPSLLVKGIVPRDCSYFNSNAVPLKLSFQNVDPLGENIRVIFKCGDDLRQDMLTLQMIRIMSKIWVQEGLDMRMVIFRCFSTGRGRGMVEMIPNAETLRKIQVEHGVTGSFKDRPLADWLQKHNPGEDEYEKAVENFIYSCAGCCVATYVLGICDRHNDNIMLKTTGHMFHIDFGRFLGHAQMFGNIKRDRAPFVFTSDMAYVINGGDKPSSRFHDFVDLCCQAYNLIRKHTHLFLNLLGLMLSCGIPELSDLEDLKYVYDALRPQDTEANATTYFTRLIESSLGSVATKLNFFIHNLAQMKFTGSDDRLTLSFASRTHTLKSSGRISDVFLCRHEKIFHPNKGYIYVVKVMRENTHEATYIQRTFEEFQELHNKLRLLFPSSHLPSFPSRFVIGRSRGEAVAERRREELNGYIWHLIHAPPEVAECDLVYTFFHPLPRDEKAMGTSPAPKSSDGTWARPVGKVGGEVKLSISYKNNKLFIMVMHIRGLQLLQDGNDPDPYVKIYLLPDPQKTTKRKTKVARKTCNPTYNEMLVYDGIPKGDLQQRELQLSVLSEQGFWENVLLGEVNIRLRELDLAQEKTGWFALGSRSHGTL", "experiment": "IC50 profile across kinases, InvitroGen Adapta assay", "type": "biochemical"}, "Class III PI3K hVPS34": {"molecular_target": "Class III PI3K hVPS34 (Homo sapiens, UniProt Q8NEB9)", "sequence (Q8NEB9 whole entry)": "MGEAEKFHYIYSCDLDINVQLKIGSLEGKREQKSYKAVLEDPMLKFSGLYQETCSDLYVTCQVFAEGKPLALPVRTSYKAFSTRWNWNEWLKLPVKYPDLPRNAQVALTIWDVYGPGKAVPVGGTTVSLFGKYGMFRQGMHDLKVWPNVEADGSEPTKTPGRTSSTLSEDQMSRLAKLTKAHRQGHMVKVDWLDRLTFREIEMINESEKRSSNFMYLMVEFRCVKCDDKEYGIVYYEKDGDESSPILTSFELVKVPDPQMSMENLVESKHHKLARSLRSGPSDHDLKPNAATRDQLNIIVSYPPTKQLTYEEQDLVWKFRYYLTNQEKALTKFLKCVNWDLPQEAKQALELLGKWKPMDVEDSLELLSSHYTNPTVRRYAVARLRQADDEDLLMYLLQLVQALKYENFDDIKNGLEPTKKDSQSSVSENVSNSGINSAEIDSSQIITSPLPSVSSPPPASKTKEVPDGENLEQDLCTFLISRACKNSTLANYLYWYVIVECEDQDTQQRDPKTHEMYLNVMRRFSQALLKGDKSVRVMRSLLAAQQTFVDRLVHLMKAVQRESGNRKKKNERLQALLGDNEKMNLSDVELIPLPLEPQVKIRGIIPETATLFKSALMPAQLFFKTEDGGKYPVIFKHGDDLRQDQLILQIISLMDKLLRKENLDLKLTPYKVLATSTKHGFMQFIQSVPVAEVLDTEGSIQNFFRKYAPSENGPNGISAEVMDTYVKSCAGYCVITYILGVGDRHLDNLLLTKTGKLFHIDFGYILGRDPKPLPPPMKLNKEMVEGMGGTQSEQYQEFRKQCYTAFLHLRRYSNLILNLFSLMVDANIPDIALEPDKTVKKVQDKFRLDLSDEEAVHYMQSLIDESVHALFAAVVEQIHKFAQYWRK", "conditions": "read-out: Class III PI3K, IC50 hVPS34; InvitroGen Adapta assay"}, "LB cells": {"tested_on": "LB cells", "experiment": "Subcutaneous human MM xenograft model", "type": "in vivo", "experimental": "CB17 SCID mice (48-54 days old) were purchased from Charles River Laboratories (Wilmington, Mass.). All animal studies were conducted according to protocols approved by the Animal Ethics Committee of the Dana-Farber Cancer Institute. Mice were inoculated subcutaneously in the right flank with 3×10^6 LB cells in 100 μL RPMI-1640. When tumors were palpable, mice were assigned into the treatment groups receiving 10 mg/kg or 30 mg/kg gavages twice daily; and 7 mice in the control group receiving vehicle alone. Caliper measurements of the longest perpendicular tumor diameters were performed every alternate day to estimate the tumor volume using the following formula representing the 3D volume of an ellipse: 4/3× (width/2)2× (length/2). Animals were sacrificed when tumors reached 2 cm or the mice appeared moribund. Survival was evaluated from the first day of treatment until death. […] The images were captured with a canon IXY digital 700 camera. Ex vivo analysis of tumor images was captured with a LEICA DM IL microscope and LEICA DFC300 FX camera at 40 u/0.60 (Leica, Heidelberg, Germany).\nMean tumor volume was calculated as in Materials and Methods, FIG. 36A. Error bars represent SD (±).\nTumors harvested from Compound II (30 mg/kg) treated mouse (right panel) and control mouse (left panel) were subjected to immuno-histochemistric analysis using CD31 and P-AKT Abs. CD31 and P-AKT positive cells are dark brown, FIG. 36D.\nSurvival was evaluated from the first day of treatment until sacrifice using Kaplan-Meier curves, FIG. 36C.\nTumor tissues were harvested from mice treated with control vehicle or Compound II (30 mg/kg). Protein levels of phosphorylated of PDK-1 and AKT (Ser473) were determined by western blotting of cell lysates, FIG. 36E. Actin was used as a loading control."}, "INA-6 cells": {"tested_on": "INA-6 cells", "experiment": "SCID-hu model, INA-6 cells in human bone chip, serum shuIL-6R ELISA", "type": "in vivo, SCID mice", "conditions": "10 or 30 mg/kg daily for 4 weeks", "experimental": "Human fetal bone grafts were implanted into CB17 SCID-mice (SCID-hu). Four weeks following bone implantation, 2.5×10^6 INA-6 cells were injected directly into the human BM cavity in the graft in a final volume of 100 μl of RPMI-1640 medium. An increase in the levels of soluble human IL-6 receptor (shulL-6R) from INA-6 cells was used as an indicator of MM cell growth and burden of disease in SCID-hu mice. Mice developed measurable serum shulL-6R approximately 4 weeks following INA-6 cell injection, and then received either 10 or 30 mg/kg drug or vehicle alone daily for […]. Blood samples were collected and assessed for shulL-6R levels using an enzyme-linked immunosorbent assay (ELISA, R&D Systems. Minneapolis Minn.).\nGrowth of INA-6 cells engrafted in human bone chips in SCID mice was monitored by serial serum measurements of shulL-6R. […] Error bars indicate SD (±).\nIn order to examine the activity of compound II on MM cell growth in the context of the human BM microenvironment in vivo, a SCID-hu model was used in which IL-6 dependent INA-6 cells are directly injected into a human bone chip implanted subcutaneously in SCID-mice. This model recapitulates the human BM microenvironment with human IL-6/BMSC-dependent growth of INA-6 human MM cells. These SCID-hu mice were treated with compound II or vehicle alone daily for 4 weeks, and serum shulL-6R monitored as a marker tumor burden. […]"}, "[1]": {"tested_on": "CLL cells with or without StromaNKTert", "experiment": "CLL cell viability/apoptosis in stromal co-culture, Annexin V/PI FACS", "type": "cell-based, human", "conditions": "100 nM alone; two patients; 24 hours", "experimental": "CLL cell and stromal cell co-cultures: CLL cells were cultured under standardized conditions on stromal cell lines or primary NLC. Briefly, stromal cells were seeded one day prior to each experiment onto 24-well plates (Corning Life Sciences) at a concentration of 3×10^5 cells/mL/well and incubated at 37° C. in 5% CO2. Stromal cell confluence was confirmed by phase contrast microscopy, and CLL cells were then added onto the stromal cell layer at a concentration of 3×10^6 cells/mL. Cultures were then treated with compounds for the specified time periods. CLL cells were removed for analysis by gentle pipetting with media, and were then washed in PBS prior to analysis. A 24-hour co-culture time point was used unless otherwise indicated.\nCell viability testing and reagents: CLL cell viability was determined by analysis of Annexin V-FITC (BD Biosciences, San Diego, Calif.) and Propidium Iodine (PI) (Sigma) by FACS.\nTo determine whether PI3K inhibition increased the sensitivity of stroma-exposed CLL cells by increasing priming, PB-derived CLL cells cultured with or without StromaNKTert cells for 24 hours and were examined using Annexin-PI and BH3 profiling. […] Stromal co-culture of four CLL patient samples led to protection from apoptosis in untreated cells."}}, "data": [{"smiles": "Cn1cnc(N)c2ncnc1-2", "note": "[Compound 3-MA, 3-Methyladenine]", "values": [{"measurement": "cytotoxicity in INA-6 and LB cells", "setting": "INA-6 and LB cells", "result": "No cytotoxicity"}]}, {"smiles": "Cn1c(=O)n(-c2ccc(C(C)(C)C#N)cc2)c2c3cc(-c4cnc5ccccc5c4)ccc3ncc21", "note": "[NVP-BEZ-235]", "values": [{"measurement": "IC50", "setting": "class II PI3K CIIbeta", "result": 3, "unit": "nM"}, {"measurement": "IC50", "setting": "Class III PI3K hVPS34", "result": 6, "unit": "nM"}]}, {"smiles": "CC(Nc1ncnc2[nH]cnc12)c1nc2ccc(F)cc2c(=O)n1-c1ccccc1", "note": "(stereo not drawn) [Compound II, 2-(1-(9H-purin-6-ylamino)ethyl)-6-fluoro-3-phenylquinazolin-4(3H)-one]", "values": [{"measurement": "MM tumor growth", "setting": "LB cells; 10 mg/kg or 30 mg/kg orally twice a day, n=7", "result": "significantly reduced"}, {"measurement": "CD31 positive cells and microvessel density", "setting": "LB cells; 30 mg/kg", "result": "significantly decreased"}, {"measurement": "p-Akt and p-PDK-1 in tumor", "setting": "LB cells; 30 mg/kg, immunohistochemical and immunoblot analysis", "result": "significantly inhibited"}, {"measurement": "body weight", "setting": "LB cells; mouse, in vivo", "result": "did not affect body weight"}, {"measurement": "tumor growth (serum shuIL-6R)", "setting": "INA-6 cells", "result": "significantly inhibited tumor growth"}]}, {"smiles": "CN(C)CC[C@H](CSc1ccccc1)Nc1ccc(S(=O)(=O)NC(=O)c2ccc(N3CCN(Cc4ccccc4-c4ccc(Cl)cc4)CC3)cc2)cc1[N+](=O)[O-]", "note": "[ABT-737, reference compound]", "values": [{"measurement": "CLL cell viability in stromal co-culture, single agent", "setting": "[1]", "result": "profound stroma-mediated resistance"}]}]}
